Paper PMC7601404, “Enzymes Involved in the Biosynthesis of Arginine from Ornithine in Maritime Pine (Pinus pinaster Ait.)” (Plants, 2020)
Where two headings read alike, the source gives them in different places.

Assays:
[1] = test system: T1, PpASSY; assay: PPi release, molybdate/ascorbate assay, […] nm; format: biochemical, Pinus pinaster; conditions: 50 mM Tris-HCl pH 8, 25 °C, 3 mM ATP, 10 mM MgCl2
T1 construct: gene ASSY; mature form without predicted chloroplast transit peptide (TargetP-2.0, WoLF PSORT); N-terminal 6xHis (pDEST17), tag kept; E. coli; cloned cDNA 1218 nt

[2] = test system: T2, PpASL; assay: fumarate absorbance at […] nm; format: biochemical, Pinus pinaster; conditions: 50 mM Tris-HCl pH 8, 25 °C
T2 construct: gene ASL; mature form without predicted chloroplast transit peptide (TargetP-2.0, WoLF PSORT); N-terminal 6xHis (pDEST17), tag kept; E. coli; cloned cDNA 1398 nt

[3] = test system: T2, PpASL; assay: fumarate absorbance at […] nm; format: biochemical, Pinus pinaster; conditions: 50 mM Tris-HCl pH 8, 25 °C, argininosuccinate above Km
[4] = test system: T3, PpOTC; assay: phosphomolybdate Pi release assay, […] nm; format: biochemical, Pinus pinaster; conditions: 50 mM Tris-HCl pH 8.0, 25 °C, ornithine + carbamoyl-P above Km
T3 construct: gene OTC; mature form without predicted chloroplast transit peptide (TargetP-2.0, WoLF PSORT); N-terminal 6xHis (pDEST17), tag kept; E. coli; cloned cDNA 984 nt

[5] = target: recombinant Pinus pinaster argininosuccinate lyase (PpASL) (Pinus pinaster); assay: SEC; desalted purified recombinant enzymes loaded separately on an ENrich SEC 650 column calibrated with protein standards (29-669 kDa); holoenzyme mass from the partition coefficient (Kav); elution followed at 280 nm and confirmed by western blot
[6] = test system: T3, PpOTC; assay: phosphomolybdate Pi release assay, […] nm; allosteric sigmoidal fit; format: biochemical, Pinus pinaster; conditions: 50 mM Tris-HCl pH 8.0, 25 °C, read-out: S0.5
[7] = target: recombinant Pinus pinaster ornithine transcarbamylase (PpOTC) (Pinus pinaster); assay: SEC; desalted purified recombinant enzymes loaded separately on an ENrich SEC 650 column calibrated with protein standards (29-669 kDa); holoenzyme mass from the partition coefficient (Kav); elution followed at 280 nm and confirmed by western blot
[8] = target: recombinant Pinus pinaster argininosuccinate synthetase (PpASSY) (Pinus pinaster); assay: as above
[9] = test system: T1, PpASSY; assay: PPi release, molybdate/ascorbate assay, […] nm; format: biochemical, Pinus pinaster; conditions: 50 mM Tris-HCl pH 8, 25 °C, citrulline, aspartate, 3 mM ATP, 10 mM MgCl2, substrates above Km; partial inhibition

N[C@@H](CC(=O)O)C(=O)O [aspartate]
Km ([1]; 2 mM citrulline): 120 ± 50 µM

NC(=O)NCCC[C@H](N)C(=O)O [citrulline]
Km ([1]; 2 mM aspartate): 120 ± 30 µM

N=C(NCCC[C@H](N)C(=O)O)N[C@@H](CC(=O)O)C(=O)O [argininosuccinate]
Km [2]: 220 ± 30 µM

NCCCCNCCCN [spermidine]
IC50 [3]: 4.97 mM

CC(C)[C@H](N)C(=O)O [valine]
IC50 [4]: 7.19 mM

NCCCNCCCCNCCCN [spermine]
IC50 [3]: 19.2 mM

recombinant Pinus pinaster argininosuccinate lyase (PpASL) (enzyme)
stoichiometry N [5]: 4

NCCC[C@H](N)C(=O)O [ornithine]
Km ([6]; carbamoyl-P co-substrate (5 mM), positive cooperativity): 1280 ± 160 µM

recombinant Pinus pinaster ornithine transcarbamylase (PpOTC) (enzyme)
stoichiometry N [7]: 3

NC(=O)OP(=O)(O)O [carbamoyl-P]
Km ([6]; ornithine co-substrate, negative cooperativity): 3480 ± 1400 µM

recombinant Pinus pinaster argininosuccinate synthetase (PpASSY) (enzyme)
stoichiometry N [8]: 4

N=C(N)NCCC[C@H](N)C(=O)O [arginine]
IC50 ([4]; negative allosteric): 10.3 mM
IC50 [9]: 1.94 mM
